According to the OPERA property sets (Mansouri et al. 2018):
Values after ≈ are worked out from the molar mass of the structure shown.

conditions: 20 °C

SMILES | solubility
Cc1ncnc2c(O)cccc12 | 2.5 mM (≈ 400 µg/mL)
CC(O)(CCl)CCl | 657 mM (≈ 94000 µg/mL)
O=C(O)c1oc(Cl)c(Cl)c1Cl | 6.04 mM (≈ 1300 µg/mL)
Oc1cc2ccccc2cc1C1=NCCN1 | 0.499 mM (≈ 106 µg/mL)
CN(CCCCC(=O)O)S(=O)(=O)c1ccccc1 | 27.6 mM (≈ 7500 µg/mL)
Cc1ccc(OCC(=O)O)cc1 | 7.22 mM (≈ 1200 µg/mL)
S=c1nc[nH]c2nccnc12 | 2.25 mM (≈ 370 µg/mL)
O=C(O)c1ccccc1CO | 28.1 mM (≈ 4280 µg/mL)
O/N=C1\C=CCCC1 | 146 mM (≈ 16200 µg/mL)
CN1C(=O)COc2ccccc21 | 7.17 mM (≈ 1170 µg/mL)
CC1(CCN2CCCCC2)NC(=O)NC1=O (centres undefined) | 151 mM (≈ 34000 µg/mL)
CCOc1nsc(N)n1 | 223 mM (≈ 32400 µg/mL)
CC(=O)Nc1ccc(C)cc1F | 18.2 mM (≈ 3040 µg/mL)
O=C1CCCCCN1C(=O)c1ccccc1 | 6.81 mM (≈ 1480 µg/mL)

same assay, conditions: 21 °C

SMILES | solubility
O=C(O)CNC(=O)c1ccco1 | 187 mM (≈ 31700 µg/mL)

same assay, conditions: 22 °C

SMILES | solubility
O=S1(=O)NCc2ccccc21 | 30.1 mM (≈ 5100 µg/mL)
NNc1cccc(S(=O)(=O)O)c1 | 149 mM (≈ 28000 µg/mL)
CCOP(=O)(Cc1ccc(-c2nc3ccccc3s2)cc1)OCC | 0.0996 mM (≈ 36 µg/mL)
O=[N+]([O-])c1cccc(P(=O)(O)O)c1 | 4830 mM (≈ 980000 µg/mL)

same assay, conditions: 23 °C

SMILES | solubility
O=c1[nH]c(=O)c2cc([N+](=O)[O-])cc([N+](=O)[O-])c2[nH]1 | 0.623 mM (≈ 157 µg/mL)
N#CCC(=O)Nc1ccccc1 | 1.87 mM (≈ 300 µg/mL)
CCCc1nc(N)c(CC)c(CCC)n1 | 3.07 mM (≈ 636 µg/mL)

same assay, conditions: 24 °C

SMILES | solubility
c1ccc(CCNCc2ccccc2)cc1 | 1.89 mM (≈ 400 µg/mL)
O=Cc1cccc(C(=O)O)c1O | 3.61 mM (≈ 600 µg/mL)

same assay, conditions: 25 °C

SMILES | solubility
CCCOC(=O)c1cccnc1 | 57.5 mM (≈ 9500 µg/mL)
O=C(O)c1ccc(Br)c([N+](=O)[O-])c1 | 1.08 mM (≈ 265 µg/mL)
O=C1OCc2ccc(Br)cc21 | 2.25 mM (≈ 480 µg/mL)
CC(C)[C@@H](O)C#N | 2020 mM (≈ 200000 µg/mL)
Cc1cccc(I)c1O | 14.5 mM (≈ 3400 µg/mL)
COC1CC1 | 763 mM (≈ 55000 µg/mL)
COc1ccc(C(=O)CCC(=O)O)cc1 | 86.5 mM (≈ 18000 µg/mL)
CC(=O)Nc1ccc2c(c1)C(=O)OC2 | 2.51 mM (≈ 480 µg/mL)
CC(=O)OCC(C)OC(C)=O (centres undefined) | 624 mM (≈ 100000 µg/mL)
CCCCCCCCCCCCCCNC(=O)C(C)O (centres undefined) | 0.105 mM (≈ 30 µg/mL)
CCCCOC(=O)C(C)OC(=O)C(C)O (centres undefined) | 42.2 mM (≈ 9200 µg/mL)
CCCC(=O)N(C)N=O | 29.2 mM (≈ 3800 µg/mL)
Oc1nc2ccccc2nc1O | 1.54 mM (≈ 250 µg/mL)
CC1(C)OC(=O)c2cc([N+](=O)[O-])ccc21 | 0.888 mM (≈ 184 µg/mL)
CCC(C)CC(O)CC (centres undefined) | 13.8 mM (≈ 1800 µg/mL)
Cn1cc([N+](=O)[O-])c(=O)[nH]c1=O | 10.1 mM (≈ 1720 µg/mL)
NS(=O)(=O)c1cccc(S(N)(=O)=O)c1 | 6.77 mM (≈ 1600 µg/mL)
CC1CCCC(=NO)C1=NO (centres undefined) | 25.6 mM (≈ 4000 µg/mL)
Cn1cnc2c1c(=O)n(CC(=O)O)c(=O)n2C | 42 mM (≈ 10000 µg/mL)
CC(C)CCCCCO | 4.97 mM (≈ 647 µg/mL)
CCCCCCC(C/C=C\CCCCCCCC(=O)O)OS(=O)(=O)O (centres undefined) | 264 mM (≈ 100000 µg/mL)
O=C(O)c1cc(N=Nc2ccccc2)ccc1O | 0.879 mM (≈ 213 µg/mL)
CCCCC(=O)Oc1ccc([N+](=O)[O-])cc1 | 0.0403 mM (≈ 9 µg/mL)
C#CC#CC=C=CCCO | 12.9 mM (≈ 1700 µg/mL)
CCOC(=S)SC(C)C(=O)O (centres undefined) | 35.6 mM (≈ 6910 µg/mL)

SMILES | solubility
CCC1(CC)OC(=O)c2ccccc21 | 1.37 mM (≈ 260 µg/mL)
CC(C)C[C@H](NC=O)C(=O)O (racemic) | 185 mM (≈ 29500 µg/mL)
Oc1c(Cl)cc(Cl)cc1Cc1ccccc1 | 0.0229 mM (≈ 5.8 µg/mL)
O=C(NCCO)c1cc(O)ccc1O | 286 mM (≈ 56400 µg/mL)
CCCCC(O)CN(N=Cc1ccc([N+](=O)[O-])o1)C(N)=O (centres undefined) | 0.268 mM (≈ 80 µg/mL)
Cc1cc(C)c([PH](=O)O)c(C)c1 | 1.62 mM (≈ 299 µg/mL)
CC(C)[C@H](NCCC#N)C(=O)O | 75.2 mM (≈ 12800 µg/mL)
Oc1ccc(C2CCCCC2)cc1 | 0.34 mM (≈ 60 µg/mL)
CCSC(=S)N[C@@H](CC(=O)O)C(=O)O | 41.1 mM (≈ 9750 µg/mL)
N#CSc1ccc(N)cc1 | 2.5 mM (≈ 376 µg/mL)
CC(Cl)C(C)(C)O (centres undefined) | 510 mM (≈ 62500 µg/mL)
CC(=O)NCCNC(C)=O | 4740 mM (≈ 683000 µg/mL)
CCCCCCCCCNC(=O)c1cccnc1 | 0.725 mM (≈ 180 µg/mL)
CCCCOP(=O)(OCC)OCCCC | 14.3 mM (≈ 3400 µg/mL)
O=C(O)CCC(=O)c1cccc2ccccc12 | 0.329 mM (≈ 75 µg/mL)
O=C1C(=O)c2ccccc2-c2ccccc21 | 0.036 mM (≈ 7.5 µg/mL)
O=[N+]([O-])c1cc(CCO)ccc1O | 69.9 mM (≈ 12800 µg/mL)
CCCCCN(N=Cc1ccc([N+](=O)[O-])o1)C(N)=O | 1.27 mM (≈ 340 µg/mL)
CC(C)[C@@H](Br)C(=O)O | 78.9 mM (≈ 14300 µg/mL)
CCC1(C)OC(=O)NC1=O (centres undefined) | 1050 mM (≈ 150000 µg/mL)
O=C(O)c1ccc2ccccc2n1 | 81.1 mM (≈ 14000 µg/mL)
CCOc1ccc(NC(C)=O)c(C)c1 | 14.5 mM (≈ 2800 µg/mL)
CCCOCCC(=O)OCCC | 20.7 mM (≈ 3600 µg/mL)
COP(=S)(OC)SSP(=S)(OC)OC | 0.04 mM (≈ 12.6 µg/mL)
O=C(O)CCC[Se][Se]CCCC(=O)O | 5.66 mM (≈ 1880 µg/mL)

same assay, conditions: 26 °C

SMILES | solubility
O=C(S)CCCCCCC(=O)S | 5.82 mM (≈ 1200 µg/mL)
CC(C(=O)O)C(C)(C)CCC(=O)O (centres undefined) | 29.8 mM (≈ 5600 µg/mL)
CSC1=CC(=O)c2ccccc2C1=O | 0.0343 mM (≈ 7 µg/mL)

same assay, conditions: 27 °C

SMILES | solubility
O=C(O)CCC(=O)OC[C@@H](NC(=O)C(Cl)Cl)[C@H](O)c1ccc([N+](=O)[O-])cc1 | 8.27 mM (≈ 3500 µg/mL)
CCC(C)(C)NC(N)=O | 96.8 mM (≈ 12600 µg/mL)

same assay, conditions: 29 °C

SMILES | solubility
Cc1cnc(NS(=O)(=O)c2ccc(N)cc2)nc1C | 0.719 mM (≈ 200 µg/mL)

same assay, conditions: 30 °C

SMILES | solubility
O=C(O)CCCCCc1ccccc1 | 2.5 mM (≈ 480 µg/mL)
CCCCn1cnc2c1c(=O)n(C)c(=O)n2C | 15.6 mM (≈ 3690 µg/mL)
CS(=O)(=O)NS(C)(=O)=O | 1100 mM (≈ 190000 µg/mL)
COC(=O)c1ccc(O)c(Br)c1 | 0.684 mM (≈ 158 µg/mL)
